Assay results as given in patent US6977269B1, “Method of improving animal tissue quality” (Pioneer Hi-Bred International, Inc, priority 2001, dated 2005).
Like-named read-outs stand apart in the source and are kept apart here. Marks after values point to notes of the source that are not given here.

Assays:
pigs [1] = assay: Oxidative rancidity of pork chops (2-thiobarbituric acid, TBA number); assay type: in vivo
Experimental: Young pigs were fed a diet containing 15 IU/kg feed (=15 mg/kg feed=[…]) vitamin E (in the form of alpha-tocopherol acetate) up to 120 pounds. Upon reaching 120 pounds, the pigs were randomly assigned to treatments using weight as a blocking factor. Sixteen pigs were allocated to the control diet, while thirteen pigs were allocated to each test diet. Treatments consisted of typical corn-soybean meal based diets with three levels of dietary tocopherol: (1) Control diet (15 mg/kg feed alpha-tocopherol acetate); (2) diets supplemented with 150, 300 or 450 mg/kg feed alpha-tocopherol acetate; and (3) diets supplemented with 150, 300 or 450 mg/kg feed gamma-tocopherol. Diets were formulated to provide adequate levels of all nutrients and fed in four phases.
Pork chops (2.5 cm) were cut from vacuum-packaged pork loins that had been stored for 21 days at 1 degree C. Freshly cut chops were placed on styrofoam trays with DriLoc (V 50 pads) and overwrapped with PVC (23,250 cc/m 2 /24 hours oxygen permeability). Pork chops were placed in simulated retail display at 2±3 degrees C. for six days. Product temperature was monitored during the display period. Chops were analyzed for lightness (L*), redness (a*), and yellowness (b*) using Illuminant C or D65 on a Minolta Chroma Meter. Three readings per chop were taken on display days 0, 1, 2, 3, 4 and 5.
Determination of pH was made on days 0 and 5 as an indication of pork spoilage. Oxidative rancidity was measured using 2-Thiobarbituric acid to determine TBA number. Final values were expressed as mg malonaldehyde per 1000 grams of meat. Purge was determined on the vacuum-packaged pork loins.
Data were analyzed using the GLM procedure of SAS. Due to a limited number of observations from the 150 IU alpha-tocopherol treatment, no estimates of carcass or loin quality measures are presented for that treatment. Data collected over a period of days were also analyzed as a splitplot. Contrasts were made between the Control and added tocopherol diets, Control and alpha-tocopherol, Control and gamma-tocopherol, and alpha- versus gamma-tocopherol.

pigs [2] = assay type: in vivo, swine
Text: The data was derived from the same swine tests as in Example 1. Data from 43 samples was ranked in descending order for four parameters: alpha-tocopherol concentration, gamma-tocopherol concentration, alpha plus gamma-tocopherol concentration, and ratio of alpha-tocopherol to gamma-tocopherol. The data was divided into four quartiles, averaged, and compared to the corresponding quartile loin pH average.

[3] = Lamb loin antioxidant concentrations
lambs = assay: Lamb loin chop coloration in retail display (Hunter values, trained panel); assay type: in vivo; conditions: for Hunter L / Hunter a / Hunter b: lamb loin chops, retail case display; for Discoloration: lean discoloration; for Discoloration / Brown color intensity: trained panel
Experimental: Following carcass fabrication, one boneless leg and the double loin were collected from each carcass, vacuum-packaged, transported and stored under refrigeration (2 to 4° C.) for seven days. […] chops were fabricated from the semimembranosus muscle from each leg following storage. Leg and double-loin chops were wrapped in oxygen permeable fresh meat PVC film. […] The leg chops and second portion of double loin chops were stored in a walk-in cooler.
After seven days in storage, the leg and loin were placed in a display case for nine days to simulate retail meat counter display conditions. Both sides of the double loin chops were evaluated on days 1, 3, 5 and 9 of retail case display for percent lean discoloration and intensity of brownness by a seven-member trained panel and also by a Spectroguard Computer Color Control System. Left and right observation values were averaged.

[4] = male, sheep (lambs), in vivo
iron-loaded rats = conditions: ability to inhibit lipid peroxidation; cited from earlier work
in vivo = conditions: male, sheep (lambs)
[5] = pork, all supplemented levels pooled

Row | Structure (SMILES) | Oxidative stability (5 day storage TBA) (pigs [1]; dietary level 300 IU) | Oxidative stability (5 day storage TBA) (pigs [1]; dietary level 450 IU) | Oxidative stability (5 day storage TBA) (pigs [1]; [5]) | Corresponding quartile loin pH average (pigs [2]; 1st Q of the ranked parameter) | Corresponding quartile loin pH average (pigs [2]; 2nd Q of the ranked parameter) | Corresponding quartile loin pH average (pigs [2]; 3rd Q of the ranked parameter) | Corresponding quartile loin pH average (pigs [2]; 4th Q of the ranked parameter) | Hunter L (lambs) | Hunter a (lambs) | Hunter b (lambs) | Discoloration (lambs) [%] | Brown color intensity (lambs) | also measured
1 | Cc1c(C)c2c(c(C)c1O)CC[C@@](C)(CCC[C@H](C)CCC[C@H](C)CCCC(C)C)O2 [Alpha-tocopherol, alpha-tocopherol, reference compound] | .134 mg malonaldehyde per 1000 grams of meat | .072 mg malonaldehyde per 1000 grams of meat | .103 mg malonaldehyde per 1000 grams of meat | 5.80 | 5.78 | 6.01 | 5.93 | 36.3^b | 11.9 | 7.54 | 12.6 | 8.30^b | Alpha-Tocopherol in loin ([3]; Day 1): 3.83^a μg/g; Gamma-Tocopherol in loin ([3]; Day 1): 0.30^b μg/g; Total antioxidant in loin ([3]; Day 1): 4.13^b μg/g; Alpha-Tocopherol in loin ([3]; Day 6): 6.22^a μg/g; Gamma-Tocopherol in loin ([3]; Day 6): 0.43^b μg/g; Total antioxidant in loin ([3]; Day 6): 6.70^b μg/g; Alpha-Tocopherol in loin ([3]; Overall): 5.04^a μg/g; Gamma-Tocopherol in loin ([3]; Overall): 0.37^b μg/g; Total antioxidant in loin ([3]; Overall): 5.41^b μg/g
2 | Cc1c(O)cc2c(c1C)O[C@](C)(CCC[C@H](C)CCC[C@H](C)CCCC(C)C)CC2 [Gamma-tocopherol, gamma-tocopherol] | .080 mg malonaldehyde per 1000 grams of meat | .125 mg malonaldehyde per 1000 grams of meat | .102 mg malonaldehyde per 1000 grams of meat | 6.03 | 5.95 | 5.77 | 5.77 | 38.4^a | 11.7 | 8.11 | 13.7 | 10.3^ab | Oxidative stability (5 day storage TBA) (pigs [1]; dietary level 150 IU): .177 mg malonaldehyde per 1000 grams of meat; Oxidative stability (5 day storage TBA) (pigs [1]; dietary level 300 IU, listed as gamma-tocopherol): 0.080 mg malonaldehyde per 1000 gram; Alpha-Tocopherol in loin [4]: 3.22^b μg/g; Increase of tissue gamma-tocopherol level over control treatment [4]: over 35 times; Total antioxidant in loin [4]: 9.57^a μg/g; Alpha-Tocopherol in loin ([4]; 1 day): 3.47^a μg/g; Total antioxidant in loin ([4]; 1 day): 10.6^a μg/g; Alpha-Tocopherol in loin ([4]; 6 day): 2.87^b μg/g; Total antioxidant in loin ([4]; 6 day): 8.47^a μg/g; antioxidant efficacy relative to alpha-tocopherol on a per unit mass basis (iron-loaded rats): about one-third; concentration at 1 day (in vivo): 7180 ng/g; concentration at 6 day (in vivo): 5570 ng/g
